This passage reports Activity and inhibition in vivo results from ChEMBL document CHEMBL5543108, “Structure-based design and synthesis of BML284 derivatives: A novel class of colchicine-site noncovalent tubulin degradation agents” (Eur J Med Chem, 2024).

The source made the active and inactive calls. The calls are words filed in the database; no cut-off is given here.

For experiment [1], the system named is A2780/Taxol. Nature of the experiment: Induction of cell cycle arrest in human A2780T cells assessed as accumulation of cells at S phase at 30 nM measured after 24 hrs by propidium iodide staining based analysis (reference value: 29.73%). The format is functional.
The subject of the next experiment is A2780S. Put plainly: Induction of cell cycle arrest in human A2780S cells assessed as accumulation of cells at G0/G1 phase at 30 nM measured after 24 hrs by propidium iodide staining based analysis (reference value: 51.71%). The class given is functional.
The next experiment concerns the target Tubulin (Homo sapiens) (UniProt P68371+Q9H4B7+P0DPH7+P68366+Q13509+Q71U36+P04350+Q3ZCM7+P07437+P68363+Q9BQE3+Q6PEY2+Q13885+Q9BVA1+Q9BUF5). Nature of the experiment: Induction of tubulin degradation in human HeLa cells at 1 uM measured after 24 hrs by immunoblot analysis. The format is cell-based. A general note: In western blotting, separated proteins are transferred to a membrane and probed.

The test system of experiment [2] is A2780/Taxol. Put plainly: Induction of cell cycle arrest in human A2780T cells assessed as accumulation of cells at G2/M phase at 100 nM measured after 24 hrs by propidium iodide staining based analysis (reference value: 24.13%). The format is functional.
Experiment [3] deals with A2780/Taxol. Nature of the experiment: Antitumor activity against human A2780T cells xenografted in mouse model assessed as tumor growth inhibition at 20 mg/kg, iv administered every two days for 18 days relative to control. The class given is functional. To be noted: 432 h, time 18 day, read-out: TGI.

As for `COc1cccc(-c2cc(NCc3ccc4[nH]ccc4c3)nc(N)n2)c1`, the Activity with A2780/Taxol [1] is on record as 35.74%; in the experiment with A2780S, 48.16%; in the experiment on A2780/Taxol [2], 83.16%. In addition, the outcome on Tubulin (Homo sapiens) was Active. The inhibition in vivo at 20 mg/kg in the experiment on A2780/Taxol [3] is 68.2%.
